From ChEMBL document CHEMBL4368924, “Synthesis and biological evaluation of nitroxide labeled pyrimidines as Aurora kinase inhibitors” (Bioorg Med Chem Lett, 2019) come the findings set out here.

Calls of active or inactive are those of the source. The rule behind the calls is not given here.

One assay relates to A549. Put plainly: Antiproliferative activity against human A549 cells after 48 hrs by MTT assay. The format is functional, cell-based. (In general: Tetrazolium dyes change colour on reduction, which living cells bring about.)
Another assay concerns LoVo. Put plainly: Antiproliferative activity against human LoVo cells after 48 hrs by MTT assay. It counts as functional, cell-based.
Another assay deals with HepG2. Put plainly: Antiproliferative activity against human HepG2 cells after 48 hrs by MTT assay. It counts as functional, cell-based.
Assay [1] deals with HeLa. Put plainly: Antiproliferative activity against human HeLa cells after 48 hrs by MTT assay. It counts as functional, cell-based.
The target in assay [2] is Vascular endothelial growth factor receptor 2 (Homo sapiens) (UniProt P35968). Put plainly: Inhibition of VEGFR2 (unknown origin) using Kemptide as substrate at 1 uM after 60 mins by ADP-Glo luminescence assay relative to control. Background: ADP-Glo first removes unused ATP, then detects ADP through luciferase.
The target of assay [3] is Activin receptor type-1-like (Homo sapiens) (UniProt P37023). Put plainly: Inhibition of ALK1 (unknown origin) using Kemptide as substrate at 1 uM after 60 mins by ADP-Glo luminescence assay relative to control.
Assay [4] addresses T1, Aurora kinase A (Homo sapiens) (UniProt O14965).
T1 sequence (whole entry): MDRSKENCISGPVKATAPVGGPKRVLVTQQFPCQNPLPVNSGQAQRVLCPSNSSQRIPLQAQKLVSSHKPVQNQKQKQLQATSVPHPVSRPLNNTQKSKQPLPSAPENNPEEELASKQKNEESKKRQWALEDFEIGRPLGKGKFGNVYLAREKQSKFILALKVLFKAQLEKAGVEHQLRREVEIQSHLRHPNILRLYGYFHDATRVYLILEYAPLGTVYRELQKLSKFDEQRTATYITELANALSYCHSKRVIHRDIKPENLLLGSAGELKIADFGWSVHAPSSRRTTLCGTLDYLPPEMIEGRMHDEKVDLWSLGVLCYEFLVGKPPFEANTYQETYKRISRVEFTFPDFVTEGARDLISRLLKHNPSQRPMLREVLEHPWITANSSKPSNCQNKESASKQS
Put plainly: Inhibition of aurora A (unknown origin) using Kemptide as substrate at 1 uM after 60 mins by ADP-Glo luminescence assay relative to control.

Assay [5] has as its target T2, Aurora kinase B (Homo sapiens, UniProt Q96GD4). Put plainly: Inhibition of aurora B (unknown origin) using Kemptide as substrate after 60 mins by ADP-Glo luminescence assay.
Assay [6] concerns the target RAC-alpha serine/threonine-protein kinase (Homo sapiens) (UniProt P31749). Put plainly: Inhibition of AKT (unknown origin) using Kemptide as substrate at 1 uM after 60 mins by ADP-Glo luminescence assay relative to control.
The target in assay [7] is T2, Aurora kinase B. Put plainly: Inhibition of aurora B (unknown origin) using Kemptide as substrate at 1 uM after 60 mins by ADP-Glo luminescence assay relative to control.
The species entered for another assay is Homo sapiens. Put plainly: Inhibition of PI3K (unknown origin) using Kemptide as substrate at 1 uM after 60 mins by ADP-Glo luminescence assay relative to control.
The target of another assay is T3, Aurora kinase A (Homo sapiens, UniProt O14965).
T3 sequence (O14965 whole entry): T1 sequence (whole entry)
Put plainly: Inhibition of aurora A (unknown origin) using Kemptide as substrate after 60 mins by ADP-Glo luminescence assay.

Assay [8] deals with T1, Aurora kinase A (Homo sapiens). Put plainly: Inhibition of aurora A in human HeLa cells assessed as decrease in Eg5 level after 24 hrs by Western blot analysis. It counts as cell-based. On the technique in general: Immunoblotting shows a protein as a band on a membrane.
The target is the same in assay [9]. Put plainly: Inhibition of aurora A in human HeLa cells assessed as decrease in TPX2 level after 24 hrs by Western blot analysis. The format is cell-based.
Assay [10] addresses T2, Aurora kinase B. Put plainly: Inhibition of aurora B in human HeLa cells assessed as decrease in HisH3 phosphorylation at ser10 residues after 24 hrs by Western blot analysis. It counts as cell-based.
Assay [11] addresses T1, Aurora kinase A (Homo sapiens). Put plainly: Inhibition of aurora A in human HeLa cells assessed as decrease in Bora level after 24 hrs by Western blot analysis. The format is cell-based.
Assay [12] relates to HeLa. Put plainly: Induction of morphological changes in human HeLa cells assessed as disrupting mitotic spindle formation at 5 uM after 24 hrs by DAPI-staining based immunofluorescence assay. The format is functional, cell-based.
For assay [13], the target named is T1, Aurora kinase A (Homo sapiens). Put plainly: Inhibition of aurora A phosphorylation at Thr288 residues in human HeLa cells after 24 hrs by immunofluorescence assay. The format is cell-based.
Assay [14] concerns the target T2, Aurora kinase B. Put plainly: Inhibition of aurora B phosphorylation at Thr232 residues in human HeLa cells after 24 hrs by immunofluorescence assay. It counts as cell-based.

T2 sequence (Q96GD4 whole entry): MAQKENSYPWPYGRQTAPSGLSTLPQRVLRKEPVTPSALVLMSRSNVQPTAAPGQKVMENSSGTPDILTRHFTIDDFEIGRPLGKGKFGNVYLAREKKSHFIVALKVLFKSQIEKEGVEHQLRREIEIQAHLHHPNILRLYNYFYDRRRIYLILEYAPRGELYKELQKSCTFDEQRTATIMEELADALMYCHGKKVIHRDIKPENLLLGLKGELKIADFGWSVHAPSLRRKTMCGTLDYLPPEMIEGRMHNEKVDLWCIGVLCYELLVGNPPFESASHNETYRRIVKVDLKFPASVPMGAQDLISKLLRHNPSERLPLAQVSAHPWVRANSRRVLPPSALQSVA
Sequence of RAC-alpha serine/threonine-protein kinase (Homo sapiens) (P31749 whole entry): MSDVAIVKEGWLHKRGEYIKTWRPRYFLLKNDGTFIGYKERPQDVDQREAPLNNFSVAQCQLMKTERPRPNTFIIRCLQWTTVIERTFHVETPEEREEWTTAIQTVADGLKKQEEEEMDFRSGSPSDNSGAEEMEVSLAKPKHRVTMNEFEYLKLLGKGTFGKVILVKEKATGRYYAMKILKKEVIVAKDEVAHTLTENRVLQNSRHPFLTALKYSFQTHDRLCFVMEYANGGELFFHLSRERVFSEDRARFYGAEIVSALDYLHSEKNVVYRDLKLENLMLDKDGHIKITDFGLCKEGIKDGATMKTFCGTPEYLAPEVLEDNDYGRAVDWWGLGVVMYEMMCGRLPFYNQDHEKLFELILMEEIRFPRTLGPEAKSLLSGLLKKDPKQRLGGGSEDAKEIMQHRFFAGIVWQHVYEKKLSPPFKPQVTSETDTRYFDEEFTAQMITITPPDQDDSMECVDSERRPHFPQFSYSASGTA
Sequence of Vascular endothelial growth factor receptor 2 (Homo sapiens) (P35968 whole entry): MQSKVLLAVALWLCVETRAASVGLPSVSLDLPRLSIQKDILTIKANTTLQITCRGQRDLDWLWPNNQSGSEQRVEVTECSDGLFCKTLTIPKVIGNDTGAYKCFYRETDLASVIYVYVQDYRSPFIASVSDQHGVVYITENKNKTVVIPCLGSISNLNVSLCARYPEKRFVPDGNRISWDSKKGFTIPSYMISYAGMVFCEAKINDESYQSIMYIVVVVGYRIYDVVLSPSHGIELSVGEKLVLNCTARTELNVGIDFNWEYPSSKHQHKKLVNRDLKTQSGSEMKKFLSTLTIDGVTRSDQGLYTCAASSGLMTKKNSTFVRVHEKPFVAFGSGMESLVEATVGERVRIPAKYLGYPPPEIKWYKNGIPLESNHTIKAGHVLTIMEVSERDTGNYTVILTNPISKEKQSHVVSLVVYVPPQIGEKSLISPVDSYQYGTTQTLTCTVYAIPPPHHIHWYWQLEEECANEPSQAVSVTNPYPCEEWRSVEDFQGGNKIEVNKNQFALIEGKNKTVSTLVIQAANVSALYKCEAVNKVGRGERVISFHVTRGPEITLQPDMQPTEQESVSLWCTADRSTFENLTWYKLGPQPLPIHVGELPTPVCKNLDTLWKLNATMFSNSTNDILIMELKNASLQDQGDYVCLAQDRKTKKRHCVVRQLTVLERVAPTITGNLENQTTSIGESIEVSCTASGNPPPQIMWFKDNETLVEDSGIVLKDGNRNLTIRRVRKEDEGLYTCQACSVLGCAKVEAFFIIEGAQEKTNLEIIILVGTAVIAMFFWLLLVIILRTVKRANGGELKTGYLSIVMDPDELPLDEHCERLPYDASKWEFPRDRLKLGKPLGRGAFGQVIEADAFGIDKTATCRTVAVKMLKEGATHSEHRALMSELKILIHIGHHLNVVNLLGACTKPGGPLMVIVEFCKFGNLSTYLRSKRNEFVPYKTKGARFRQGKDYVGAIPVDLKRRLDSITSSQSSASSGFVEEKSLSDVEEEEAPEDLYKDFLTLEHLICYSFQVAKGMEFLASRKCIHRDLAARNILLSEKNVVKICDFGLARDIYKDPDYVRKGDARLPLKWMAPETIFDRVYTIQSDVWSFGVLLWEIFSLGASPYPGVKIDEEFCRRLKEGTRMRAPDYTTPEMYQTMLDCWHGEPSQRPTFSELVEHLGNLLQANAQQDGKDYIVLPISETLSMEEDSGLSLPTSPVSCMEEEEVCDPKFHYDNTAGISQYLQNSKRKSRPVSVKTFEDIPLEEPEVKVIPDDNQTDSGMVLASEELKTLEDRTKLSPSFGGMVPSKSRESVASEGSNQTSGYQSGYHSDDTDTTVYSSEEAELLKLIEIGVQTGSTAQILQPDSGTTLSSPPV
Sequence of Activin receptor type-1-like (Homo sapiens) (P37023 whole entry): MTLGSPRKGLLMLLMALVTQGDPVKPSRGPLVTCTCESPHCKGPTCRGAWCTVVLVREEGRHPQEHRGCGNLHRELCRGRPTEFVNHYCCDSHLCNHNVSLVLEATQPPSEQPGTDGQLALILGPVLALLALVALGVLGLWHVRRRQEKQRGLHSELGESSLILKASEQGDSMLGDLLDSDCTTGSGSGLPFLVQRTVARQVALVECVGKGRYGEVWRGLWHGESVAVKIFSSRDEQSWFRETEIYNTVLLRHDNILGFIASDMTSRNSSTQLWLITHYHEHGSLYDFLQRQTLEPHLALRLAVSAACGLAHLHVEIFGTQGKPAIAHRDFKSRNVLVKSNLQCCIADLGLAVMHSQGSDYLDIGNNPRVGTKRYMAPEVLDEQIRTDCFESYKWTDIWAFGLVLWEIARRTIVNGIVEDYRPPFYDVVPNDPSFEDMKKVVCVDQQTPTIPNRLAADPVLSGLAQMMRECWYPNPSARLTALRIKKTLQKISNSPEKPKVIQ

Usually IC50 stands for the concentration that inhibits the measured activity by half. For `Cc1cc(Nc2cc(N3CCN(C)CC3)nc(Sc3ccc(NC(=O)C4CC4)cc3)n2)n[nH]1` [TOZASERTIB], the IC50 is 35.8 µM in the assay on A549 (Homo sapiens, A549, 48 h); 45.3 µM in the assay on LoVo (Homo sapiens, LoVo, 48 h); 53.3 µM in the assay with HepG2 (Homo sapiens, HepG2, 48 h); 46.2 µM in the assay on HeLa [1] (Homo sapiens, HeLa, 48 h).

In general, inhibition refers to how much of the control response was suppressed. Consider `Cc1cc(Nc2nc(Nc3ccc(C(=O)NC4CC(C)(C)N([O])C(C)(C)C4)cc3)ncc2F)no1`, for which the inhibition was 57% in [2]; 39% in [3]; 69% in assay [4]; 0% in [6]; 76.5% at Aurora kinase B [7]; 18% in the assay listed under Homo sapiens. Further, the IC50 worked out at 0.88 µM in the assay on A549 (Homo sapiens, A549, 48 h); 0.0173 µM against Aurora kinase B [5]; 12 µM in the assay with LoVo (Homo sapiens, LoVo, 48 h); 10.8 µM in the assay on HepG2 (Homo sapiens, HepG2, 48 h); 0.0201 µM against Aurora kinase A; 5.68 µM with HeLa [1] (Homo sapiens, HeLa, 48 h).

As to `CC1(C)CC(NC(=O)c2ccc(Nc3ncc(F)c(NCCCNc4ccc([N+](=O)[O-])cc4)n3)cc2)CC(C)(C)N1[O]`, the IC50 in the assay on A549 (a549) was 12.4 µM; with LoVo (lovo) it was 53.6 µM; in the assay on HepG2 (hepg2) it was 19.8 µM; in the assay on HeLa [1] (hela), 31.7 µM.

For the molecule `CC(C)OC(=O)Cc1csc(Nc2nc(Nc3ccc(C(=O)NC4CC(C)(C)N([O])C(C)(C)C4)cc3)ncc2F)n1`, the IC50 came to 3.42 µM with A549 (a549), 11.9 µM in the assay with LoVo (lovo), 13.4 µM in the assay on HepG2 (hepg2) and 11.2 µM with HeLa [1] (hela).

As to `CCOC(=O)Cc1csc(Nc2nc(Nc3ccc(C(=O)NC4CC(C)(C)N([O])C(C)(C)C4)cc3)ncc2[N+](=O)[O-])n1`, the IC50 is 1.04 µM with A549 (a549), 27 µM with LoVo (lovo), 26.4 µM in the assay on HepG2 (hepg2) and 12 µM in the assay with HeLa [1] (hela).

Turning to `Cc1cc(Nc2nc(Nc3ccc(C(=O)NC4CC(C)(C)N([O])C(C)(C)C4)cc3)ncc2[N+](=O)[O-])no1`, the IC50 in the assay with A549 (a549) was determined as 1.14 µM; in the assay on LoVo (lovo) it was 26.8 µM; with HepG2 (hepg2), 7.36 µM; in the assay on HeLa [1] (hela), 7.36 µM.

On to `CCN1CCN(c2nc(Nc3ccc(C(=O)NC4CC(C)(C)N([O])C(C)(C)C4)cc3)ncc2[N+](=O)[O-])CC1`, for which the IC50 in the assay on A549 (a549) stood at 1.96 µM; in the assay with LoVo (lovo) it was 39.7 µM; with HepG2 (hepg2) it was 56.8 µM; with HeLa [1] (hela), 17.5 µM.

For `CCOC(=O)c1csc(Nc2nc(Nc3ccc(C(=O)NC4CC(C)(C)N([O])C(C)(C)C4)cc3)ncc2[N+](=O)[O-])n1`, the IC50 in the assay on A549 (a549) is 0.74 µM; in the assay on LoVo (lovo), 12.5 µM; in the assay with HepG2 (hepg2) it was 6.87 µM; in the assay on HeLa [1] (hela) it was 3.79 µM.

On to `CC1(C)CC(NC(=O)c2ccc(Nc3ncc([N+](=O)[O-])c(N4CCN(c5ccc(F)cc5)CC4)n3)cc2)CC(C)(C)N1[O]`, for which the IC50 was 10.2 µM in the assay with A549 (a549), 27.8 µM in the assay on LoVo (lovo), 13.1 µM in the assay with HepG2 (hepg2) and 25.3 µM in the assay on HeLa [1] (hela).

`Cc1cc(Nc2nc(Nc3ccc(C(=O)NC4CC(C)(C)N([O])C(C)(C)C4)cc3)ncc2[N+](=O)[O-])n[nH]1`: the IC50 with A549 (a549) was 15.3 µM; in the assay with LoVo (lovo) it was more than 100 µM; with HepG2 (hepg2), 37.5 µM; with HeLa [1] (hela), 29.1 µM.

In the case of `CCCCOC(=O)Cc1cc(Nc2nc(Nc3ccc(C(=O)NC4CC(C)(C)N([O])C(C)(C)C4)cc3)ncc2F)n[nH]1`, the inhibition result in assay [8] was “Dose-dependent effect”; in assay [2], 35.5%; in assay [9] it was “Dose-dependent effect”; in assay [3] it was 33.5%; on Aurora kinase B [10], “Dose-dependent effect”; in assay [11] it was “Dose-dependent effect”. Moreover, the inhibition result in [13] is “Dose-dependent effect”; in assay [4], 84.5%; in assay [6], 0%; against Aurora kinase B [7] it was 90.5%; in the assay listed under Homo sapiens, 7%; on Aurora kinase B [14] it was “Dose-dependent effect”. Also, the result in the assay on HeLa [12] was Active. Moreover, the concentration for half-maximal inhibition (IC50) in the assay on A549 (Homo sapiens, A549, 48 h) came out at 0.89 µM; against Aurora kinase B [5] it was 0.0028 µM; in the assay with LoVo (Homo sapiens, LoVo, 48 h), 11.4 µM; with HepG2 (Homo sapiens, HepG2, 48 h), 5.73 µM; on Aurora kinase A, 0.0093 µM; in the assay with HeLa [1] (Homo sapiens, HeLa, 48 h), 2.72 µM.

Turning to `CC1(C)CC(NC(=O)c2ccc(Nc3ncc(F)c(N4CCOCC4)n3)cc2)CC(C)(C)N1[O]`, the IC50 in the assay on A549 (a549) was found to be 13.2 µM; with LoVo (lovo) it was 35.5 µM; with HepG2 (hepg2), 22.6 µM; in the assay with HeLa [1] (hela), 14.3 µM.

`CCCCOC(=O)Cc1csc(Nc2nc(Nc3ccc(C(=O)NC4CC(C)(C)N([O])C(C)(C)C4)cc3)ncc2F)n1`: the IC50 in the assay on A549 (a549) worked out at 2.31 µM; in the assay on LoVo (lovo) it was 21.9 µM; in the assay with HepG2 (hepg2), 11.5 µM; with HeLa [1] (hela), 5.23 µM.

Take `CC1(C)CC(NC(=O)c2ccc(Nc3ncc([N+](=O)[O-])c(NC4CCCC4)n3)cc2)CC(C)(C)N1[O]`: the IC50 is 33.2 µM in the assay on A549 (a549), 41.2 µM in the assay on LoVo (lovo), 28.7 µM in the assay with HepG2 (hepg2) and 55.6 µM with HeLa [1] (hela).

Regarding `Cc1cc(Nc2nc(Nc3ccc(C(=O)NC4CC(C)(C)N([O])C(C)(C)C4)cc3)ncc2F)n[nH]1`, the IC50 in the assay with A549 (a549) worked out at 2.12 µM; in the assay on LoVo (lovo) it was 42.2 µM; in the assay on HepG2 (hepg2) it was 10.8 µM; in the assay with HeLa [1] (hela) it was 11.2 µM.
